From patent US20230277669A1, “USES OF UROLITHINS” (Amazentis SA, priority 2022, published 2023) come the findings set out here.

For this assay, the system named is subcutaneous APTK tumors. Briefly: Oral UA in Rag1-/- mice with s.c. APTK tumors. The assay is classed as in vivo. The conditions noted are these: UA-containing vs control food; no mature T and B cells. From the text:
Oral UA confers anti-tumor effects in murine colorectal cancer in a T-cell dependent manner. (FIG. 1A) Schematic representation of AOM model and different UA containing diets. (FIG. 1B) Representative images of swiss-roll sections from AOM-induced colon tumors. Scale bars are 2 mm (upper row) and 300 µm (lower row), respectively. (FIG. 1C) Tumor incidence of AOM-induced tumors receiving different UA-containing diets; n=4/5/5. Data are mean ±SD, depicting one of two independent experiments. *p < 0.05 by two-sided t-test. (FIG. 1D) Average lesion size of AOM-induced tumors receiving different UA-containing diets; n=4/5/5. Data are mean ±SD, depicting one of two independent experiments. *p < 0.05 by two-sided t-test. (FIG. 1E) Relative number of CD45^+CD3^+ T cells in colons of AOM-treated mice at week 24 (n>7, pooled from two independent experiments). Data are mean ± SD, **p < 0.01 by two-sided t-test. (FIG. 1F) Organoid treatment scheme. […] (FIG. 1G) Quantification of lysosome formation as assessed by lysotracker MFI via flow cytometry after 24 h incubation at the presence of various UA concentrations (n=5/4/4). […] (FIG. 1L) End point tumor weight, (FIG. 1M) CD8+ T cell infiltration in APTK-s.c. tumors assessed by flow cytometry, normalising total number of CD8^+ T cells to tumor weight (n=7 per group). […]

With `O=c1oc2cc(O)ccc2c2ccc(O)cc12` [Urolithin A], the “tumor size, protective effect of UA” value was “abrogated the protective effect of UA”.
